Data on 41 compounds can be found in ChEMBL document CHEMBL6109084 (Eur J Med Chem, 2025).

The target in one assay is Coagulation factor XI (Homo sapiens, UniProt P03951). In words: Inhibition of human FXIa using p-Glu-Pro-Arg-pNA.HCl as substrate incubated for 30 mins followed by substrate addition and measured after 60 mins by microplate reader analysis.
For the next assay, the system named is Plasma. In words: Anticoagulant activity in citrated human plasma assessed as prolongation of activated partial thromboplastin time at 1 uM incubated for 3 mins by aPTT reagent based automated coagulometric analysis relative to control. Format: functional. The following applies: 0.05 h.

Coagulation factor XI, sequence (P03951 19-387 limits assumed): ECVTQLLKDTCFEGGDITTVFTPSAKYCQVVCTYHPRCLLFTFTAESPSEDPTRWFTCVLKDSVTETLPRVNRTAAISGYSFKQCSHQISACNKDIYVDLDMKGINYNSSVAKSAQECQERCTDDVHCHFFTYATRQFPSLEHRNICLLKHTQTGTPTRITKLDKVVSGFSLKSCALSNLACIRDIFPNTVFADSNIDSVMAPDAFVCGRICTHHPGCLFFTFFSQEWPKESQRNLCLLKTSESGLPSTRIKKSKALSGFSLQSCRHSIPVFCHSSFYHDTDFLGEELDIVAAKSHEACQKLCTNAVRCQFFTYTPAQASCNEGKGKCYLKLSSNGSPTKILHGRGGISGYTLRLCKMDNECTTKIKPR
Coagulation factor XI, sequence (P03951 388-625 limits assumed): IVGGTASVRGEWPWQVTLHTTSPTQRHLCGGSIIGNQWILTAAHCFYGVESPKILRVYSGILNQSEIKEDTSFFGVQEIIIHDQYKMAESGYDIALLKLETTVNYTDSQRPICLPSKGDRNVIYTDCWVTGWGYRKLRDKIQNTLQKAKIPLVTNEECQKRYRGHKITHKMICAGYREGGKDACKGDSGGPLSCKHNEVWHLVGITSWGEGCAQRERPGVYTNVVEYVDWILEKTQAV

One may read the IC50 as the midpoint of a concentration-inhibition curve. A high value points to a need for much substance. The compound `COc1cn(Cc2cccc(-c3ccc(F)cc3)c2)c(=O)cc1-c1cc(Cl)ccc1-n1cnnn1` came in with an IC50 against Coagulation factor XI of 10.1 nM.

Regarding `COc1cn(Cc2ccc(F)c(-c3ccc(N)nc3)c2)c(=O)cc1-c1cc(Cl)ccc1-n1cnnn1`, the midpoint of inhibition on Coagulation factor XI, the IC50, lay at 0.69 nM. For the same compound, the Activity in the assay with Plasma came out at 128.5%.

As for `CCC(c1cc(-c2ccc(N)nc2F)ccn1)n1cc(OC)c(-c2cc(Cl)ccc2-n2cnnn2)cc1=O` (racemic), 0.39 nM corresponded to half-maximal inhibition against Coagulation factor XI (IC50). For the same compound, the Activity with Plasma is given as 97.2%.

As for `COc1cn(C(C)c2ccc(F)c(-c3ccc(N)nc3)c2)c(=O)cc1-c1cc(Cl)ccc1-n1cnnn1` (centres undefined), the IC50 on Coagulation factor XI stood at 1.4 nM. For the same compound, in the assay on Plasma, the Activity worked out at 14.8%.

The compound `COc1cn(Cc2cccc(-c3ccc(N)nc3F)c2)c(=O)cc1-c1cc(Cl)ccc1-n1cnnn1` gave an IC50 against Coagulation factor XI of 0.39 nM. Moreover, in the assay with Plasma, the Activity turned out to be 103.4%.

Compound `COc1cn(Cc2cccc(-c3ccc(C(N)=O)cc3F)c2)c(=O)cc1-c1cc(Cl)ccc1-n1cnnn1` returned an IC50 against Coagulation factor XI of 3 nM. The Activity with Plasma turned out to be 82.8%.

As for `COc1cn(Cc2ccc3ccccc3c2)c(=O)cc1-c1cc(Cl)ccc1-n1cnnn1`, at Coagulation factor XI, the IC50 is 39 nM.

Turning to `COc1ccc(-c2cccc(Cn3cc(OC)c(-c4cc(Cl)ccc4-n4cnnn4)cc3=O)c2)cc1`, on Coagulation factor XI, the IC50 turned out to be 129 nM.

`COc1c[nH]c(=O)cc1-c1cc(Cl)ccc1-n1cnnn1` returned an IC50 on Coagulation factor XI of 1100 nM.

On Coagulation factor XI, `COc1cn(Cc2ccc(F)c(-c3ccc4[nH]ncc4c3)c2)c(=O)cc1-c1cc(Cl)ccc1-n1cnnn1` gave an IC50 of 1.3 nM. Moreover, the Activity with Plasma is 57.1%.

At Coagulation factor XI, `COc1cn(Cc2cccc(-c3ccncc3)c2)c(=O)cc1-c1cc(Cl)ccc1C(F)F` displayed an IC50 above 1000 nM.

In turn, `CNC(=O)c1ccc(-c2cc(Cn3cc(OC)c(-c4cc(Cl)ccc4-n4cnnn4)cc3=O)ccc2F)cc1` yielded an IC50 against Coagulation factor XI of 5.2 nM. Moreover, the Activity with Plasma is given as 49.9%.

With `COc1cn(Cc2ccc(F)c(-c3ccncc3)c2)c(=O)cc1-c1cc(Cl)ccc1-n1cnnn1`, the IC50 on Coagulation factor XI was found to be 1.8 nM. Also, the Activity in the assay with Plasma was found to be 129.8%.

As for `CNC(=O)c1ccc(-c2cccc(Cn3cc(OC)c(-c4cc(Cl)ccc4-n4cnnn4)cc3=O)c2)cc1`, at Coagulation factor XI, the IC50 came to 5.9 nM. For the same compound, in the assay on Plasma, the Activity worked out at 45.4%.

Take `CCC(c1cccc(-c2ccc(N)nc2)c1)n1cc(OC)c(-c2cc(Cl)ccc2-n2cc(Cl)nn2)cc1=O` (centres undefined): on Coagulation factor XI, the midpoint of inhibition, the IC50, lay at 1.6 nM. For the same compound, the Activity in the assay with Plasma stood at 55.6%.

Regarding `COc1cn(Cc2ccnc(-c3ccncc3)c2)c(=O)cc1-c1cc(Cl)ccc1-n1cnnn1`, half-maximal inhibition on Coagulation factor XI (IC50) was put at 2.3 nM. In addition, the Activity in the assay with Plasma turned out to be 113.1%.

Consider `COc1cn(Cc2cccc(-c3ccc(O)cc3)c2)c(=O)cc1-c1cc(Cl)ccc1-n1cnnn1`, for which the IC50 at Coagulation factor XI worked out at 1.7 nM. Further, the Activity in the assay with Plasma worked out at 26.6%.

In turn, `COc1ccc(Cn2cc(OC)c(-c3cc(Cl)ccc3-n3cnnn3)cc2=O)cc1-c1ccncc1` had an IC50 against Coagulation factor XI of 2.1 nM. For the same compound, the Activity with Plasma amounted to 70%.

The compound `COc1cn(Cc2cccc(-c3ccc(N)nc3)c2)c(=O)cc1-c1cc(Cl)ccc1C(F)F` displayed an IC50 against Coagulation factor XI above 1000 nM.

Turning to `COc1cn(Cc2ccc(F)c(-c3ccc(N)nc3)c2)c(=O)cc1-c1cc(Cl)ccc1-n1cc(Cl)nn1`, at Coagulation factor XI, the IC50 stood at 3.2 nM. Besides, in the assay on Plasma, the Activity turned out to be 55.4%.

`COc1cn(Cc2cccc(-c3ccc(F)cc3F)c2)c(=O)cc1-c1cc(Cl)ccc1-n1cnnn1`: it took 15.1 nM to reach half-maximal inhibition against Coagulation factor XI (IC50).

On Coagulation factor XI, `COc1cn(Cc2cccc(-c3ccc(N)nc3)c2)c(=O)cc1-c1cc(Cl)ccc1OC(F)F` came in with an IC50 above 500 nM.

`COc1cn(Cc2ccc(-c3ccc(O)cc3)cc2)c(=O)cc1-c1cc(Cl)ccc1-n1cnnn1`: the IC50 on Coagulation factor XI worked out at 203 nM.

Turning to `COc1cn(Cc2ccc(F)c(-c3ccc(C(N)=O)cc3F)c2)c(=O)cc1-c1cc(Cl)ccc1-n1cnnn1`, the IC50 at Coagulation factor XI was 4.7 nM. The Activity in the assay with Plasma came out at 47%.

`COc1cn(Cc2cccc(-c3cnc(N)nc3)c2)c(=O)cc1-c1cc(Cl)ccc1-n1cnnn1`: 11.5 nM corresponded to half-maximal inhibition against Coagulation factor XI (IC50).

At Coagulation factor XI, `COc1cn(Cc2cccc(-c3ccncc3)c2)c(=O)cc1-c1cc(Cl)ccc1-n1cc(Cl)nn1` came in with a 50% inhibitory concentration (IC50) of 4.2 nM. In addition, in the assay on Plasma, the Activity was 78.1%.

Compound `COc1cn(Cc2cccc(-c3ccc(N)nc3)c2)c(=O)cc1-c1cc(Cl)ccc1-n1cnnn1` came in with an IC50 on Coagulation factor XI of 0.35 nM. For the same compound, the Activity in the assay with Plasma was determined as 143.3%.

Compound `COc1cn(Cc2cccc(-c3ccc(N(C)C)cc3)c2)c(=O)cc1-c1cc(Cl)ccc1-n1cnnn1` came in with a 50% inhibitory concentration (IC50) at Coagulation factor XI above 500 nM.

`COc1cn(Cc2cccc(-c3ccc(N)nc3)c2)c(=O)cc1-c1cc(Cl)ccc1-n1cc(Cl)nn1` yielded an IC50 on Coagulation factor XI of 2.2 nM. Moreover, the Activity in the assay on Plasma is 82.8%.

On Coagulation factor XI, `COc1cn(Cc2ccc(F)c(-c3ccc(O)cc3)c2)c(=O)cc1-c1cc(Cl)ccc1-n1cnnn1` displayed an IC50 of 1.4 nM. For the same compound, the Activity with Plasma was found to be 63.2%.

Compound `COc1cn(Cc2ccc(F)c(-c3ccncc3)c2)c(=O)cc1-c1cc(Cl)ccc1-n1cc(Cl)nn1` gave an IC50 against Coagulation factor XI of 4.9 nM. The Activity in the assay with Plasma stood at 74.7%.

Compound `COc1cn(C(C)c2cccc(-c3ccc(N)nc3)c2)c(=O)cc1-c1cc(Cl)ccc1-n1cnnn1` (centres undefined) showed an IC50 against Coagulation factor XI of 0.54 nM. Further, in the assay with Plasma, the Activity is reported as 74.3%.

The compound `CC[C@H](c1cc(-c2ccc(N)nc2F)ccn1)n1cc(OC)c(-c2cc(Cl)ccc2-n2cnnn2)cc1=O` had an IC50 against Coagulation factor XI of 6.7 nM. Also, the Activity in the assay with Plasma is recorded as 56.3%.

With `COc1cn(C(C)c2cccc(-c3ccncc3)c2)c(=O)cc1-c1cc(Cl)ccc1-n1cnnn1` (centres undefined), on Coagulation factor XI, 2.4 nM corresponded to half-maximal inhibition (IC50). Also, the Activity with Plasma was determined as 80.1%.

On Coagulation factor XI, `COc1cn(Cc2cccc(-c3ccc4[nH]ncc4c3)c2)c(=O)cc1-c1cc(Cl)ccc1-n1cnnn1` yielded a half-inhibitory concentration (IC50) of 4 nM. The Activity in the assay on Plasma was found to be 38.7%.

In the case of `COc1ccc(Cn2cc(OC)c(-c3cc(Cl)ccc3-n3cnnn3)cc2=O)cc1-c1ccc(N)nc1`, at Coagulation factor XI, 1.7 nM corresponded to half-maximal inhibition (IC50). Moreover, the Activity in the assay on Plasma was 50.4%.

In turn, `COc1cn(Cc2cc(-c3cnc(N)nc3)ccn2)c(=O)cc1-c1cc(Cl)ccc1-n1cnnn1` returned a 50% inhibitory concentration (IC50) against Coagulation factor XI of 95.3 nM.

At Coagulation factor XI, `COc1cn(Cc2ccnc(-c3ccc(N)nc3)c2)c(=O)cc1-c1cc(Cl)ccc1-n1cnnn1` had a half-maximal inhibitory concentration (IC50) of 0.33 nM. In addition, the Activity in the assay on Plasma is given as 112.5%.

In the case of `COc1cn(Cc2ccc(F)c(-c3ccc(NC(C)=O)cc3)c2)c(=O)cc1-c1cc(Cl)ccc1-n1cnnn1`, the IC50 against Coagulation factor XI worked out at 1.9 nM. In the assay with Plasma, the Activity amounted to 86.8%.

The compound `COc1cn(Cc2cccc(-c3ccncc3)c2)c(=O)cc1-c1cc(Cl)ccc1OC(F)F` gave an IC50 on Coagulation factor XI above 500 nM.

In turn, `COc1cn(Cc2cccc(-c3ccc(NC(C)=O)cc3)c2)c(=O)cc1-c1cc(Cl)ccc1-n1cnnn1` displayed an IC50 against Coagulation factor XI of 6.4 nM. In the assay with Plasma, the Activity came out at 50.8%.
